Key:
Assay in all cases: KinaseProfiler kinase assay
Type in all cases: biochemical
Yes(h) = Yes(h) (Homo sapiens, UniProt P07947)
How it was run: (§1)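 Compounds were serially diluted from DMSO into 20 mM MOPS buffer with EDTA, Brij-35, glycerol, β-mercaptoethanol and 1 mg/mL BSA. Reactions started with MgATP/[γ-33P]ATP, ran 40 min at room temperature, and phosphorylation was measured by scintillation counting after filtermat capture.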

GSK3β(h) = GSK3β(h) (Homo sapiens, UniProt P49841)
How it was run: as §1

MRCKα(h) = MRCKα(h) (Homo sapiens, UniProt Q5VT25)
How it was run: as §1

EphB3(h) = EphB3(h) (Homo sapiens, UniProt P54753)
How it was run: as §1

DYRK2(h) = DYRK2(h) (Homo sapiens, UniProt Q92630)
How it was run: as §1

ZAP-70(h) = ZAP-70(h) (Homo sapiens, UniProt P43403)
How it was run: as §1

PKCε(h) = PKCε(h) (Homo sapiens, UniProt Q02156)
How it was run: as §1

MAPKAP-K2(h) = MAPKAP-K2(h) (Homo sapiens, UniProt P49137)
How it was run: as §1

GRK6(h) = GRK6(h) (Homo sapiens, UniProt P43250)
How it was run: as §1

[1] = biological target: PI3 Kinase (p110α(E545K)/p85α)(m) (Mus musculus, UniProt P42337, E545K)
How it was run: as §1

PKA(h) = PKA(h) (Homo sapiens, UniProt P17612)
How it was run: as §1

PKCι(h) = PKCι(h) (Homo sapiens, UniProt P41743)
How it was run: as §1

HIPK2(h) = HIPK2(h) (Homo sapiens, UniProt Q9H2X6)
How it was run: as §1

PKCθ(h) = PKCθ(h) (Homo sapiens, UniProt Q04759)
How it was run: as §1

PrKX(h) = PrKX(h) (Homo sapiens, UniProt P51817)
How it was run: as §1

CHK2(I157T)(h) = CHK2(I157T)(h) (Homo sapiens, UniProt O96017, I157T)
How it was run: as §1

DAPK2(h) = DAPK2(h) (Homo sapiens, UniProt Q9UIK4)
How it was run: as §1

CDK3/cyclinE(h) = CDK3/cyclinE(h) (Homo sapiens, UniProt Q00526)
How it was run: as §1

[2] = biological target: PI3 Kinase (p110α/p65α)(m) (Mus musculus, UniProt P42337)
How it was run: as §1

Ron(h) = Ron(h) (Homo sapiens, UniProt Q04912)
How it was run: as §1

cKit(V654A)(h) = cKit(V654A)(h) (Homo sapiens, UniProt P10721, V654A)
How it was run: as §1

MST1(h) = MST1(h) (Homo sapiens, UniProt Q13043)
How it was run: as §1

PAK2(h) = PAK2(h) (Homo sapiens, UniProt Q13177)
How it was run: as §1

Met(h) = Met(h) (Homo sapiens, UniProt P08581)
How it was run: as §1

ULK3(h) = ULK3(h) (Homo sapiens, UniProt Q6PHR2)
How it was run: as §1

PKBα(h) = PKBα(h) (Homo sapiens, UniProt P31749)
How it was run: as §1

IRR(h) = IRR(h) (Homo sapiens, UniProt P14616)
How it was run: as §1

BrSK2(h) = BrSK2(h) (Homo sapiens, UniProt Q8IWQ3)
How it was run: as §1

CaMKIV(h) = CaMKIV(h) (Homo sapiens, UniProt Q16566)
How it was run: as §1

ARK5(h) = ARK5(h) (Homo sapiens, UniProt O60285)
How it was run: as §1

ROCK-II(r) = ROCK-II(r) (Rattus norvegicus, UniProt Q62868)
How it was run: as §1

BTK(h) = BTK(h) (Homo sapiens, UniProt Q06187)
How it was run: as §1

Chain of GRK6(h) (P43250 whole entry): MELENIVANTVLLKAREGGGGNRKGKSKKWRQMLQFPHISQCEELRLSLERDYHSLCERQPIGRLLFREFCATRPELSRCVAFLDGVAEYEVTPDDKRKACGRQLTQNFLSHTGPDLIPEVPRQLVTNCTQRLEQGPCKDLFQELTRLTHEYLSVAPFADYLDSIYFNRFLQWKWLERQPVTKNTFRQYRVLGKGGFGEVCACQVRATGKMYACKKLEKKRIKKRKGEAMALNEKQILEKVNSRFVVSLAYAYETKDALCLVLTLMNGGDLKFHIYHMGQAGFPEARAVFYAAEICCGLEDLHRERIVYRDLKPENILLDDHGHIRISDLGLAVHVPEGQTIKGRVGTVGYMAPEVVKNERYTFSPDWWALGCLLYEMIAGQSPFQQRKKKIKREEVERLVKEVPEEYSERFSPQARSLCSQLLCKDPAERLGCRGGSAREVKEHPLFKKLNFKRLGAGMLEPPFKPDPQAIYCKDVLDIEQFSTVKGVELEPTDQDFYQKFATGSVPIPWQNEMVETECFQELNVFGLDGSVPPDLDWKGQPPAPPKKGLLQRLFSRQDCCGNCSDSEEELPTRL
Chain of ZAP-70(h) (P43403 whole entry): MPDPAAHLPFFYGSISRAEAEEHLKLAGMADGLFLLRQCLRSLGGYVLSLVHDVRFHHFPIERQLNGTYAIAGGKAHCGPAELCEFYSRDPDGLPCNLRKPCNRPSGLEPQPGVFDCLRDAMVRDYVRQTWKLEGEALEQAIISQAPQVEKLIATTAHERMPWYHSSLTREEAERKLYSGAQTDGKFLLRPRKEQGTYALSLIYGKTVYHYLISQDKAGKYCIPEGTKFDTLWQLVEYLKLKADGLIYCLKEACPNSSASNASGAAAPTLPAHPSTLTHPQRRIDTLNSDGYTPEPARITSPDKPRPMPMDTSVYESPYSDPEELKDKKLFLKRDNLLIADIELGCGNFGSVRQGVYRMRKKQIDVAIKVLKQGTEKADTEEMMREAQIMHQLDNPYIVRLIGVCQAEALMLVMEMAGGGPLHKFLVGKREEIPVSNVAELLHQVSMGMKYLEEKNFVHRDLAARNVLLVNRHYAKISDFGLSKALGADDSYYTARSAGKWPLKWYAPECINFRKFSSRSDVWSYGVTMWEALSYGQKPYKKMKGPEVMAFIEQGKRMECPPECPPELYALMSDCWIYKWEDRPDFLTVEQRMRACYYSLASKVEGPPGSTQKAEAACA
Chain of IRR(h) (P14616 27-1297): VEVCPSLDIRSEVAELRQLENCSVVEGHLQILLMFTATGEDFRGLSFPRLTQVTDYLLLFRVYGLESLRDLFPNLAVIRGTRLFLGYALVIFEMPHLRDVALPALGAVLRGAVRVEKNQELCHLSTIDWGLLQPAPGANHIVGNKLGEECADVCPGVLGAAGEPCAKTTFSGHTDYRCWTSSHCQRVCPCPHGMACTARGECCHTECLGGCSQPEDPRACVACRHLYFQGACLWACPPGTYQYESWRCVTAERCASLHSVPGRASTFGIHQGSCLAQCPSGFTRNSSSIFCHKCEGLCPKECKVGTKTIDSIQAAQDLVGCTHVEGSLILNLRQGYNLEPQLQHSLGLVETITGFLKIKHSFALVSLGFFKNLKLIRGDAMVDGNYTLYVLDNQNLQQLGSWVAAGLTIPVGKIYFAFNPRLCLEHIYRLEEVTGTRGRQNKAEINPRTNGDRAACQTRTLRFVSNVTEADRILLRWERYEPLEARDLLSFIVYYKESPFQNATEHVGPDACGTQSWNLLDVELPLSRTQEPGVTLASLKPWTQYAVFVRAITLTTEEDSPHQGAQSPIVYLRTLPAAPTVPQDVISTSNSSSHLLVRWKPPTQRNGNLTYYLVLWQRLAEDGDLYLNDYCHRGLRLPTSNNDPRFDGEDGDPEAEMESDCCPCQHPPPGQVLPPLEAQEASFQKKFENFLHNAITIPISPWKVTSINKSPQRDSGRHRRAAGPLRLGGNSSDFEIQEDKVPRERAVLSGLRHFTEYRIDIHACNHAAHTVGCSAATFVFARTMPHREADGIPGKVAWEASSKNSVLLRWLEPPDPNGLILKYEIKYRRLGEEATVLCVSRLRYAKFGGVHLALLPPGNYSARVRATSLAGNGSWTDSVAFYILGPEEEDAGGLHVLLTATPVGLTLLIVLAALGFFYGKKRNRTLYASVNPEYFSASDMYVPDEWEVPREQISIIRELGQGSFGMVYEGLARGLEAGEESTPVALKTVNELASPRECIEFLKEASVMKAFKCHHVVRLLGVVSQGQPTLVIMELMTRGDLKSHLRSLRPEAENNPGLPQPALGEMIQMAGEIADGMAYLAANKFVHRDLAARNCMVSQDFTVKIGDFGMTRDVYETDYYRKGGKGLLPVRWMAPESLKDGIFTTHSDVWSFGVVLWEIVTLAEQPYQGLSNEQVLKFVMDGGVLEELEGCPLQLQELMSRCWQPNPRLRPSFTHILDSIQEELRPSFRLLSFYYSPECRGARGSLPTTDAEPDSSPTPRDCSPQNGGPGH
Chain of PAK2(h) (Q13177 whole entry): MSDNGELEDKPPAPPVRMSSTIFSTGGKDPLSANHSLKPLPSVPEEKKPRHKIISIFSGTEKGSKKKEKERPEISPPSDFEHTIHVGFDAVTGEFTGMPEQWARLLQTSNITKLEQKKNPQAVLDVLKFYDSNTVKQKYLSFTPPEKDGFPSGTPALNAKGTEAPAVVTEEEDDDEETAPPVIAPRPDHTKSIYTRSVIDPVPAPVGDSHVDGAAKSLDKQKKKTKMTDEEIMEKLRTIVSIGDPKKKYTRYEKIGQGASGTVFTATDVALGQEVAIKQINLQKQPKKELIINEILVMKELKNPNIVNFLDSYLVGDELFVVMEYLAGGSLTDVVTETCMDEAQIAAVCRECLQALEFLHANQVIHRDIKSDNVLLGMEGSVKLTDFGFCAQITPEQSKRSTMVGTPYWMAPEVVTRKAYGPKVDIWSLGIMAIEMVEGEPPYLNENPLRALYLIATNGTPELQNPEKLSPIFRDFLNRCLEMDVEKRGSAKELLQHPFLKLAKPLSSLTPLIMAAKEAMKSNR
Chain of MRCKα(h) (Q5VT25 whole entry): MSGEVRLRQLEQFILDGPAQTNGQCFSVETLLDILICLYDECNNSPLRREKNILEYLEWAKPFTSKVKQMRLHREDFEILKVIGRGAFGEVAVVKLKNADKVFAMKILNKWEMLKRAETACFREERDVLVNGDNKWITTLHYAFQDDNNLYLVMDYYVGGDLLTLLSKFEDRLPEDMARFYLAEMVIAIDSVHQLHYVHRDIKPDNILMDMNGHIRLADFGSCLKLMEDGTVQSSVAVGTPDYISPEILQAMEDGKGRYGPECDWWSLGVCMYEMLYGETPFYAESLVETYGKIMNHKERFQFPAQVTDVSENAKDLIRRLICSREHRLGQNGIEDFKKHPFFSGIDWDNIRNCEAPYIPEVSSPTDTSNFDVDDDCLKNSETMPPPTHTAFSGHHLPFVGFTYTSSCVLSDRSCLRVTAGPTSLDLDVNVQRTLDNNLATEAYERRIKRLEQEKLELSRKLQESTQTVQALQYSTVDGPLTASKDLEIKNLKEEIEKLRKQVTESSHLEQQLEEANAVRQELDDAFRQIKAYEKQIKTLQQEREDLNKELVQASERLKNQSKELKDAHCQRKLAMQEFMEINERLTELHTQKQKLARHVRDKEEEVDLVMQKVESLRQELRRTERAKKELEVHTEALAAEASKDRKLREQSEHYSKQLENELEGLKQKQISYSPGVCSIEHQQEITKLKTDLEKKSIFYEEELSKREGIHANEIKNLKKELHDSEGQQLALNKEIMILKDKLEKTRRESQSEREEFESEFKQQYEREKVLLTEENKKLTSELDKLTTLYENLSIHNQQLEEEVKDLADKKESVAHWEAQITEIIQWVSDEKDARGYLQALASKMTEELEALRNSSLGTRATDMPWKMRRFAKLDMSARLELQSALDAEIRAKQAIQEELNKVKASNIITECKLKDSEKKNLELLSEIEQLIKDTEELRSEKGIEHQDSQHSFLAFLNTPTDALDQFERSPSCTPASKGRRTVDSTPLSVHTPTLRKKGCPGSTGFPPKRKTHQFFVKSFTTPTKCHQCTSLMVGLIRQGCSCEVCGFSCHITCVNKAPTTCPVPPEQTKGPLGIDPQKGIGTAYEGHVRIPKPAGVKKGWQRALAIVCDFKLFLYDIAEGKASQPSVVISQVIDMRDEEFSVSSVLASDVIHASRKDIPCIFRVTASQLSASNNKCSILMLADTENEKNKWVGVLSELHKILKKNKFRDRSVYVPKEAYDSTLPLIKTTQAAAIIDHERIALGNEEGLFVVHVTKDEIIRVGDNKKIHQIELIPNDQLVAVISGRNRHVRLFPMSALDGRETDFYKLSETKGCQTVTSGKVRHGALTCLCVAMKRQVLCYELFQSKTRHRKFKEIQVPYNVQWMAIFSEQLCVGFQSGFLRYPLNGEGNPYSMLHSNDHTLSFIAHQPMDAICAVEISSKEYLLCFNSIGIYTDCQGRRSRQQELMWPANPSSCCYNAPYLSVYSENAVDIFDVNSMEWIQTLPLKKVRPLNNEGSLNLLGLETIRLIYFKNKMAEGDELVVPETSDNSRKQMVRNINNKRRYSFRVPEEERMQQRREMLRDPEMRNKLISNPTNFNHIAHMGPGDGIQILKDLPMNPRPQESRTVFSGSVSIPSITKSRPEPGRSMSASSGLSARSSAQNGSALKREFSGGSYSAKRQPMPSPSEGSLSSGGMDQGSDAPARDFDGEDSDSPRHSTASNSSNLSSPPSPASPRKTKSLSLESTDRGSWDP
Chain of PrKX(h) (P51817 whole entry): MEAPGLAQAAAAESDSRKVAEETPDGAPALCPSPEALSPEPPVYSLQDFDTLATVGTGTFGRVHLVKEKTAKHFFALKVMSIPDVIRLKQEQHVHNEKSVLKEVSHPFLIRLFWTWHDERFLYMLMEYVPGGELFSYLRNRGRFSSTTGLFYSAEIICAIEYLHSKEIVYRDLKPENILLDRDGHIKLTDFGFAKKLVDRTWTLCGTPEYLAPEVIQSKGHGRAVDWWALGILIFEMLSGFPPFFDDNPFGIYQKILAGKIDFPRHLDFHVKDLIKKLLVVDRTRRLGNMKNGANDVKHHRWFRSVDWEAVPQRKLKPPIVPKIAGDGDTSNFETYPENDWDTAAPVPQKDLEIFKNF

Row | Structure (SMILES) | inhibition at 0.1 µM (Yes(h)) [%] | inhibition at 0.1 µM (GSK3β(h)) [%] | inhibition at 0.1 µM (MRCKα(h)) [%] | inhibition at 0.1 µM (EphB3(h)) [%] | inhibition at 0.1 µM (DYRK2(h)) [%] | inhibition at 0.1 µM (ZAP-70(h)) [%] | inhibition at 0.1 µM (PKCε(h)) [%] | inhibition at 0.1 µM (MAPKAP-K2(h)) [%] | inhibition at 0.1 µM (GRK6(h)) [%] | inhibition at 0.1 µM [1] [%] | inhibition at 0.1 µM (PKA(h)) [%] | inhibition at 0.1 µM (PKCι(h)) [%] | inhibition at 0.1 µM (HIPK2(h)) [%] | inhibition at 0.1 µM (PKCθ(h)) [%] | inhibition at 0.1 µM (PrKX(h)) [%] | inhibition at 0.1 µM (CHK2(I157T)(h)) [%] | inhibition at 0.1 µM (DAPK2(h)) [%] | inhibition at 0.1 µM (CDK3/cyclinE(h)) [%] | inhibition at 0.1 µM [2] [%] | inhibition at 0.1 µM (Ron(h)) [%] | also measured
1 | Cc1cc2c(F)c(Oc3nc(Nc4cc(C5CC5)[nH]n4)cc(N4CCN(C)CC4)n3)ccc2[nH]1 [Compound 10] | 99 | -15 | 2 | -8 | -6 | 3 | -10 | -7 | -5 | 0 | 2 | 0 | -2 | 21 | 13 | 30 | -16 | 0 | -1 | 34 | inhibition at 0.1 µM (cKit(V654A)(h)): 35%; inhibition at 0.1 µM (MST1(h)): 78%; inhibition at 0.1 µM (PAK2(h)): 16%; inhibition at 0.1 µM (Met(h)): 54%; inhibition at 0.1 µM (ULK3(h)): 86%; inhibition at 0.1 µM (PKBα(h)): -24%; inhibition at 0.1 µM (IRR(h)): 91%; inhibition at 0.1 µM (BrSK2(h)): 60%; inhibition at 0.1 µM (CaMKIV(h)): -25%; inhibition at 0.1 µM (ARK5(h)): 99%; inhibition at 0.1 µM (ROCK-II(r)): 13%; inhibition at 0.1 µM (BTK(h)): 50%
2 | Cc1cc2c(F)c(Oc3nc(Nc4cc(C5CC5)[nH]n4)cc(N4CCNCC4)n3)ccc2[nH]1 [Compound 11, N-(5-cyclopropyl-1H-pyrazol-3-yl)-2-((4-fluoro-2-methyl-1H-indol-5-yl)oxy)-6-(piperazin-1-yl)pyrimidin-4-amine] | 101 | 19 | -3 | -18 | -1 | -13 | 17 | -10 | -14 | 1 | -12 | -10 | 0 | -16 | 35 | -1 | -6 | 33 | 2 | 43 | inhibition at 0.1 µM (cKit(V654A)(h)): 53%; inhibition at 0.1 µM (MST1(h)): 74%; inhibition at 0.1 µM (PAK2(h)): 0%; inhibition at 0.1 µM (Met(h)): 47%; inhibition at 0.1 µM (ULK3(h)): 84%; inhibition at 0.1 µM (PKBα(h)): -4%; inhibition at 0.1 µM (IRR(h)): 95%; inhibition at 0.1 µM (BrSK2(h)): 48%; inhibition at 0.1 µM (CaMKIV(h)): -1%; inhibition at 0.1 µM (ARK5(h)): 95%; inhibition at 0.1 µM (ROCK-II(r)): 16%; inhibition at 0.1 µM (BTK(h)): 71%

— patent US10245261B2, “Substituted indol-5-ol derivatives and their therapeutic applications” (NantBioScience, Inc., priority 2013, dated 2019)
